Assay results reported in patent US20250122182A1 (Isosterix, Inc., priority 2023, published 2025).

Target: Recombinant KAT6A/MOZ (488-778) protein (Homo sapiens (Human), UniProt Q92794)
Test: KAT6A AlphaLISA Inhibition Screening Assay
Assay type: biochemical
Details: for inhibition at 1 µM: read-out: Average Kat6A % inhibition @ 1 μM; for inhibition at 1 µM / Average Kat6A % inhibition @ 1 μM: 1 μM test compound; for inhibition at 10 µM: read-out: Average Kat6A % inhibition @ 10 μM; for inhibition at 10 µM / Average Kat6A % inhibition @ 10 μM: 10 μM test compound
Procedure, shortened: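 25 nM KAT6A (488-778) pre-incubated 60 or 10 min with compound (10-point, 3-fold from 10 μM), then 400 nM acetyl-CoA and 200 nM biotin-H3(1-21) peptide added for 120 min at RT in pH 8.0 Tris buffer with 330 nM TSA. Acetylation read by AlphaLISA (anti-acetyl-lysine acceptor/streptavidin donor beads); % inhibition vs vehicle.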

Sequence of Recombinant KAT6A/MOZ (488-778) protein (Q92794 488-778): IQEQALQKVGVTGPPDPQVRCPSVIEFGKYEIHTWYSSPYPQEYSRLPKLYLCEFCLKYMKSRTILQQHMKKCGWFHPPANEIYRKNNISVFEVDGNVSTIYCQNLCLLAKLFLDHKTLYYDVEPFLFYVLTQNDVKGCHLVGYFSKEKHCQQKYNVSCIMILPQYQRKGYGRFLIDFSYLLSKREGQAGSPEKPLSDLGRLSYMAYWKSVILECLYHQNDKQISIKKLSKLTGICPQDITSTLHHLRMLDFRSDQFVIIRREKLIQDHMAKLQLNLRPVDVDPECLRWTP

Structure (SMILES) | inhibition at 1 µM [%] | inhibition at 10 µM [%] | Average Kat6A % inhibition @ 1 μM [%] | Average Kat6A % inhibition @ 10 μM [%]
C=C(F)C(=O)NCc1cnn(Cc2cc(OC)c3c(NS(=O)(=O)c4cc(CC)ccc4OCCNC(=O)OC)noc3c2)c1 [Syn. Ex. 79, methyl (2-(4-ethyl-2-(N-(6-((4-((2-fluoroacrylamido)methyl)-1H-pyrazol-1-yl)methyl)-4-methoxybenzo[d]isoxazol-3-yl)sulfamoyl)phenoxy)ethyl)carbamate] | 99 | 100 | – | –
CCc1cc(S(=O)(=O)Nc2noc3cc(Cn4cc(CNC(=O)OC)cn4)cc(OC)c23)c(OC)cn1 [Syn. Ex. 120, methyl ((1-((3-((2-ethyl-5-methoxypyridine)-4-sulfonamido)-4-methoxybenzo[d]isoxazol-6-yl)methyl)-1H-pyrazol-4-yl)methyl)carbamate] | – | – | 100 | 100
CC#CC(=O)NCc1ccc(Oc2cc(OC)c3c(NS(=O)(=O)c4cc(CC)ccc4OC)noc3c2)nc1 [Syn. Ex. 57, N-((6-((3-((5-ethyl-2-methoxyphenyl)sulfonamido)-4-methoxybenzo[d]isoxazol-6-yl)oxy)pyridin-3-yl)methyl)but-2-ynamide] | 70 | 100 | – | –
COc1cc2c(cc1S(=O)(=O)Nc1noc3cc(Cn4cc(CNS(C)(=O)=O)cn4)cc(OC)c13)CCC2 [Syn. Ex. 24, 6-methoxy-N-(4-methoxy-6-((4-(methylsulfonamidomethyl)-1H-pyrazol-1-yl)methyl)benzo[d]isoxazol-3-yl)-2,3-dihydro-1H-indene-5-sulfonamide] | 99 | 100 | – | –
CCc1ccc(OC)c(S(=O)(=O)Nc2noc3cc(Cn4cc(CNC(=O)OCCO)cn4)cc(OC)c23)c1 [Syn. Ex. 34, 2-hydroxyethyl ((1-((3-((5-ethyl-2-methoxyphenyl)sulfonamido)-4-methoxybenzo[d]isoxazol-6-yl)methyl)-1H-pyrazol-4-yl)methyl)carbamate] | 86 | 100 | – | –
C=C(F)C(=O)NCc1cnn(Cc2cc(OC)c3c(NS(=O)(=O)c4cc(CC)ccc4OCC#N)noc3c2)c1 [Syn. Ex. 43, N-((1-((3-((2-(cyanomethoxy)-5-ethylphenyl)sulfonamido)-4-methoxybenzo[d]isoxazol-6-yl)methyl)-1H-pyrazol-4-yl)methyl)-2-fluoroacrylamide] | 96 | 98 | – | –
C=C(F)C(=O)NCc1csc(Oc2cc(OC)c3c(NS(=O)(=O)c4cc(CC)ccc4OC)noc3c2)n1 [Syn. Ex. 105, N-((2-((3-((5-ethyl-2-methoxyphenyl)sulfonamido)-4-methoxybenzo[d]isoxazol-6-yl)oxy)thiazol-4-yl)methyl)-2-fluoroacrylamide] | 68 | 99 | – | –
CCc1ccc(OC)c(S(=O)(=O)Nc2noc3cc(Oc4ncc(CN[S+]([O-])C(C)(C)C)o4)cc(OC)c23)c1 (stereo not drawn) [Syn. Ex. 98, N-(6-((5-(((tert-Butylsulfinyl)amino)methyl)oxazol-2-yl)oxy)-4-methoxybenzo[d]isoxazol-3-yl)-5-ethyl-2-methoxybenzenesulfonamide] | 78 | 92 | – | –
C#CC(=O)N1Cc2cnn(Cc3cc(OC)c4c(NS(=O)(=O)c5cc(Cl)ccc5OC)noc4c3)c2C1 [Syn. Ex. 1, 5-chloro-2-methoxy-N-(4-methoxy-6-((5-propioloyl-5,6-dihydropyrrolo[3,4-c]pyrazol-1(4H)-yl)methyl)benzo[d]isoxazol-3-yl)benzenesulfonamide] | 100 | 100 | – | –
CCc1ccc(OC)c(S(=O)(=O)Nc2noc3cc(Cn4cc(CNC(=O)OC)cn4)c4c(c23)OCCC4)c1 [Syn. Ex. 97, methyl ((1-((9-((5-ethyl-2-methoxyphenyl)sulfonamido)-3,4-dihydro-2H-chromeno[8,7-d]isoxazol-5-yl)methyl)-1H-pyrazol-4-yl)methyl)carbamate] | 100 | 100 | – | –
CCc1ccc(OC)c(S(=O)(=O)Nc2noc3cc(Oc4cc(CNC(=O)OC)ccn4)cc(OC)c23)c1 [Syn. Ex. 110, methyl ((2-((3-((5-ethyl-2-methoxyphenyl)sulfonamido)-4-methoxybenzo[d]isoxazol-6-yl)oxy)pyridin-4-yl)methyl)carbamate] | 9 | 58 | – | –
CCc1ccc(OC)c(S(=O)(=O)Nc2noc3cc(Cn4cc(CNC(=O)[C@H](C)F)cn4)cc(OC)c23)c1 (single isomer, unassigned) [Syn. Ex. 47b] | 96 | 100 | – | –
CC#CC(=O)NCc1cnn(Cc2cc(OC)c3c(NS(=O)(=O)c4cc5c(cc4OC)CCC5)noc3c2)c1 [Syn. Ex. 29, N-((1-((4-methoxy-3-((6-methoxy-2,3-dihydro-1H-indene)-5-sulfonamido)benzo[d]isoxazol-6-yl)methyl)-1H-pyrazol-4-yl)methyl) but-2-ynamide] | – | – | 100 | 100
C=C(F)C(=O)NCc1cnn(Cc2cc(OC)c3c(NS(=O)(=O)c4c(OC)ccnc4OC)noc3c2)c1 [Syn. Ex. 87, N-((1-((3-((2,4-dimethoxypyridine)-3-sulfonamido)-4-methoxybenzo[d]isoxazol-6-yl)methyl)-1H-pyrazol-4-yl)methyl)-2-fluoroacrylamide] | – | – | 95 | 100
COc1ccc(S(=O)(=O)Nc2noc3cc(Cn4cc(CNS(C)(=O)=O)cn4)cc(OC)c23)c(OC)c1 [Syn. Ex. 10, 2,4-dimethoxy-N-(4-methoxy-6-((4-(methylsulfonamidomethyl)-1H-pyrazol-1-yl)methyl)benzo[d]isoxazol-3-yl)benzenesulfonamide] | 100 | 100 | – | –
CCc1ccc(OC)c(S(=O)(=O)Nc2noc3cc(Cn4cc(CNC(C)=O)cn4)cc(OC)c23)c1 [Syn. Ex. 8, N-((1-((3-((5-ethyl-2-methoxyphenyl)sulfonamido)-4-methoxybenzo[d]isoxazol-6-yl)methyl)-1H-pyrazol-4-yl)methyl) acetamide] | 99 | 100 | – | –
C=C(F)C(=O)NCc1ccnc(Oc2cc(OC)c3c(NS(=O)(=O)c4cc(CC)ccc4OC)noc3c2)c1 [Syn. Ex. 111, N-((2-((3-((5-ethyl-2-methoxyphenyl)sulfonamido)-4-methoxybenzo[d]isoxazol-6-yl)oxy)pyridin-4-yl)methyl)-2-fluoroacrylamide] | 0 | 54 | – | –
C=C(Cl)C(=O)NCc1cnn(Cc2cc(OC)c3c(NS(=O)(=O)c4cc(CC)ccc4OC)noc3c2)c1 [Syn. Ex. 35, 2-chloro-N-((1-((3-((5-ethyl-2-methoxyphenyl)sulfonamido)-4-methoxybenzo[d]isoxazol-6-yl)methyl)-1H-pyrazol-4-yl)methyl)acrylamide] | 100 | 100 | – | –
CCc1ccc(OCc2nc[nH]n2)c(S(=O)(=O)Nc2noc3cc(Cn4cc(CNC(=O)OC)cn4)cc(OC)c23)c1 [Syn. Ex. 117, methyl ((1-((3-((2-((1H-1,2,4-triazol-3-yl)methoxy)-5-ethylphenyl)sulfonamido)-4-methoxybenzo[d]isoxazol-6-yl)methyl)-1H-pyrazol-4-yl)methyl)carbamate] | 100 | 100 | – | –
CCc1ccc(OC)c(S(=O)(=O)Nc2noc3cc(Cn4cc(CNC(=O)OCCNC(=O)OC(C)(C)C)cn4)cc(OC)c23)c1 [Syn. Ex. 31, 2-((tert-butoxycarbonyl)amino)ethyl ((1-((3-((5-ethyl-2-methoxyphenyl)sulfonamido)-4-methoxybenzo[d]isoxazol-6-yl)methyl)-1H-pyrazol-4-yl)methyl)carbamate] | 86 | 99 | – | –
CCc1ccc(OC)c(S(=O)(=O)Nc2noc3cc(Cn4cc(CNC(=O)OCCN)cn4)cc(OC)c23)c1 [Syn. Ex. 32, 2-aminoethyl ((1-((3-((5-ethyl-2-methoxyphenyl)sulfonamido)-4-methoxybenzo[d]isoxazol-6-yl)methyl)-1H-pyrazol-4-yl)methyl) carbamate] | – | – | 75 | 97
C=C(F)C(=O)Nc1ccc(Oc2cc(OC)c3c(NS(=O)(=O)c4cc5c(cc4OC)CCC5)noc3c2)nc1 [Syn. Ex. 144, 2-fluoro-N-(6-((4-methoxy-3-((6-methoxy-2,3-dihydro-1H-indene)-5-sulfonamido)benzo[d]isoxazol-6-yl)oxy)pyridin-3-yl)acrylamide] | – | – | 101 | 99
CCc1ccc(OCCN)c(S(=O)(=O)Nc2noc3cc(Cn4cc(CNC(=O)OC)cn4)cc(OC)c23)c1 [Syn. Ex. 75, methyl ((1-((3-((2-(2-aminoethoxy)-5-ethylphenyl)sulfonamido)-4-methoxybenzo[d]isoxazol-6-yl)methyl)-1H-pyrazol-4-yl)methyl)carbamate] | 59 | 92 | – | –
COc1cc(C)c(Cl)cc1S(=O)(=O)Nc1noc2cc(Cn3cc(CNS(C)(=O)=O)cn3)cc(OC)c12 [Syn. Ex. 22, 5-chloro-2-methoxy-N-(4-methoxy-6-((4-(methylsulfonamidomethyl)-1H-pyrazol-1-yl)methyl)benzo[d]isoxazol-3-yl)-4-methylbenzenesulfonamide] | 100 | 100 | – | –
CCc1cnc(OC)c(S(=O)(=O)Nc2noc3cc(Cn4cc(CNC(=O)OC)cn4)cc(OC)c23)c1 [Syn. Ex. 121, methyl ((1-((3-((5-ethyl-2-methoxypyridine)-3-sulfonamido)-4-methoxybenzo[d]isoxazol-6-yl)methyl)-1H-pyrazol-4-yl)methyl)carbamate] | – | – | 100 | 94
